Where two headings read alike, the source gives them in different places.
Legend:
[1] = tested on: HIV-1 (strain IIIB); test: MT4 cell assay, antiviral HIV activity (propidium iodide); format: cell-based; details: Human immunodeficiency virus 1, IIIB
Description: Antiviral HIV activity and compound-induced cytotoxicity were measured in parallel by means of a propidium iodide based procedure in the human T-cell lymphotropic virus transformed cell line MT4. Aliquots of the test compounds were serially diluted in medium (RPMI 1640, 10% fetal calf serum (FCS), and gentamycin) in 96-well plates (Costar 3598) using a Cetus Pro/Pette. Exponentially growing MT4 cells were harvested and centrifuged at 1000 rpm for 10 min in a Jouan centrifuge (model CR 4 12). Cell pellets were resuspended in fresh medium (RPMI 1640, 20% FCS, 20% IL-2, and gentamycin) to a density of 5×10^5 cells/ml. Cell aliquots were infected by the addition of HIV-1 (strain IIIB) diluted to give a viral multiplicity of infection of 100×TCID50. A similar cell aliquot was diluted with medium to provide a mock-infected control. Cell infection was allowed to proceed for 1 hr at 37° C. in a tissue culture incubator with humidified 5% CO2 atmosphere. After the 1 hr incubation the virus/cell suspensions were diluted 6-fold with fresh medium, and 125 μl of the cell suspension was added to each well of the plate containing pre-diluted compound. Plates were then placed in a tissue culture incubator with humidified 5% CO2 for 5 days. At the end of the incubation period, 27 μl of 5% Nonidet-40 was added to each well of the incubation plate. After thorough mixing with a Costar multitip pipetter, 60 μl of the mixture was transferred to filter-bottomed 96-well plates. The plates were analyzed in an automated assay instrument (Screen Machine, Idexx Laboratories). The control and standard used was 3′-azido-3′-deoxythymidine tested over a concentration range of 0.01 to 1 μM in every assay. […] The assay-makes use of a propidium iodide dye to estimate the DNA content of each well.
The antiviral effect of a test compound is reported as an IC50, i.e. the inhibitory concentration that would produce a 50% decrease in the HIV-induced cytopathic effect. This effect is measured by the amount of test compound required to restore 50% of the cell growth of HIV-infected MT4 cells, compared to uninfected MT4 cell controls. IC50 was calculated by RoboSage, Automated Curve Fitting Program, version 5.00, 10 Jul. 1995.
For each assay plate, the results (relative fluorescence units, rfU) of wells containing uninfected cells or infected cells with no compound were averaged, respectively. For measurements of compound-induced cytotoxicty, results from wells containing various compound concentrations and uninfected cells were compared to the average of uninfected cells without compound treatment. Percent of cells remaining is determined by the following formula: Percent of cells remaining=(compound−treated uninfected cells, rfU/untreated uninfected cells)×100.
A level of percent of cells remaining of 79% or less indicates a significant level of direct compound-induced cytotoxicity for the compound at that concentration. When this condition occurs the results from the compound-treated infected wells at this concentration are not included in the calculation of IC50.
For measurements of compound antiviral activity, results from wells containing various compound concentrations and infected cells are compared to the average of uninfected and infected cells without compound treatment. Percent inhibition of virus is determined by the following formula: Percent inhibition of virus=(1−((ave. untreated uninfected cells−treated infected cells)/(ave. untreated uninfected cells−ave. untreated infected cells)))×100

[2] = tested on: NEV-R; test: as above; format: cell-based; details: Human immunodeficiency virus 1, MT4, read-out: IC50 (nM) Range
[3] = tested on: HIV-2; test: as above; format: cell-based; details: Human immunodeficiency virus 2, Virus Type HIV-2, read-out: IC50 (nM) Range
[4] = tested on: isogenic HIV-1 RT mutant virus K103N/Y181C; test: HeLa cell assay (HIV-LTR β-galactosidase reporter); format: cell-based; details: Human immunodeficiency virus 1, HeLa, read-out: IC50 (nM) Range
Description: (§1) The HeLa cell assay was performed according to a modification of Kimpton J. and Emerman M., Detection of replication-competent and pseudotyped human immunodeficiency virus with a sensitive cell line on the basis of activation of an integrated β-galactosidase gene, J. Virol. 66:2232-2239 (1992), in which HIV-1 infection is detected by the activation of an HIV-LTR driven β-galactosidase reporter that is integrated into the genome of a CD4^+ HeLa cell line. Quantitation of β-galactosidase is achieved by measuring the activation of a chemiluminescent substrate (Tropix). The concentration of each compound required to inhibit 50% (IC50) of the HIV-1 induced β-galactosidase signal, relative to untreated controls, was determined for each isogenic, recombinant virus.
(§2) HeLa-CD4-LTR-β-gal cells were obtained from the NIH AIDS Research and Reference Reagent Program. Cells were propagated in DMEM containing 10% fetal bovine serum, 0.2 mg/ml geneticin and 0.1 mg/ml hygromycin B. Cells were routinely split by trypsinization when confluency reached 80% (approximately every 2 to 3 days).
(§3) DNA encoding the HIV-1 reverse transcriptase was subcloned from a M13 phage into a general shuttle vector, pBCSK+, as a ˜1.65 kbp EcoRI/HindIII ended DNA fragment. The HIV DNA insert of the resulting plasmid, pRT2, was completely sequenced on both strands prior to use in site directed mutagenesis experiments. Specific amino acid replacements were made using Stratagene Quick Change reagents and mutagenic oligonucleotides from Oligos. Following mutagenesis, the entire mutant RT coding sequence was verified by sequencing both DNA strands.
(§4) Mutant HIV-1 strains were isolated by a modified Recombinant Virus Assay (Kellam P. and Larder B., Recombinant virus assay: a rapid, phenotypic assay for assessment of drug susceptibility of human immunodeficiency virus type 1 isolates, Antimicrobial Agents and Chemotherapy, 38:23-30, 1994). 1×10^7 Jurkat T-cells (maintained in RPMI containing 10% fetal bovine serum, split 1:5 every 5 to 6 days) were co-transfected with EcoRI/HindIII digested mutant RT plasmid and Bst EII-digested HIV-1HXB2ΔRT DNA in the presence of DMRIE-C transfection reagent (Gibco) according to supplier's recommended protocol. Each mutant RT coding sequence was crossed into the RT-deleted HIV-1 viral DNA backbone by in vivo homologous recombination. Transfected cell cultures were expanded and monitored until syncitia formation and CPE were extensive. Virus was harvested by clear spin of the culture supernatants and frozen at −80 C as primary stock. Recombinant progeny virus was sequenced in the RT region to confirm the mutant genotype. Virus stocks were further expanded by infection of Jurkat cells, harvested and stored as frozen aliquots. Stocks were titered in HeLa MAGI cells for assay.
(§5) The HIV-1HXB2 mutants were titered in the HeLa MAGI assay system to determine the relative light units (RLU) per ml, a measure of infectivity relevant for this assay system. Virus stocks were diluted in a 2-fold series into DMEM containing 10% fetal bovine serum plus 20 ug/ml DEAE-dextran and assayed as described in the Experimental Protocol section, below.
(§6) 96-well microtiter plate(s) (Costar #3598) were seeded with 3×10^3 HeLa-CD4-LTR-β-gal in 100 μl DMEM containing 10% fetal bovine serum. Plates were placed in a 37° C., 5% CO2 humidified incubator overnight. The following day, mutant virus stocks were thawed in a room temperature water bath and diluted into DMEM containing 10% fetal bovine serum and 20 μg/ml DEAE-dextran to achieve an input of 1500 to 2000 RLU/ml. All media was removed with an 8 channel manifold aspirator and 35 μl (50 to 70 total RLUs) of diluted virus was added to each well for virus adsorption. Plates were placed in a 37° C., 5% CO2 humidified incubator for 1.5 to 2 hours.
(§7) Compound titration plates were prepared at 1.35× final concentration during the virus adsorption period. […]

[5] = tested on: isogenic HIV-1 RT mutant virus K103N; test: HeLa cell assay (HIV-LTR β-galactosidase reporter); format: cell-based; details: Human immunodeficiency virus 1, HeLa, read-out: IC50 (nM) Range
Description: as §1, §2, §3, §4, §5, §6, §7

[6] = tested on: WTRVA; test: HeLa cell assay (HIV-LTR β-galactosidase reporter); format: cell-based, HIV-1; details: Human immunodeficiency virus 1, Virus Type WTRVA, read-out: IC50 (nM) Range
Description: as §1, §2, §3, §4, §5, §6, §7

[7] = tested on: isogenic HIV-1 RT mutant virus Y181C; test: HeLa cell assay (HIV-LTR β-galactosidase reporter); format: cell-based; details: Human immunodeficiency virus 1, HeLa, read-out: IC50 (nM) Range
Description: as §1, §2, §3, §4, §5, §6, §7

[8] = tested on: isogenic HIV-1 RT mutant virus V106A/Y181C; test: HeLa cell assay (HIV-LTR β-galactosidase reporter); format: cell-based; details: Human immunodeficiency virus 1, HeLa, read-out: IC50 (nM) Range
Description: as §1, §2, §3, §4, §5, §6, §7

[9] = tested on: isogenic HIV-1 RT mutant virus V106I/Y181C; test: HeLa cell assay (HIV-LTR β-galactosidase reporter); format: cell-based; details: Human immunodeficiency virus 1, HeLa, read-out: IC50 (nM) Range
Description: as §1, §2, §3, §4, §5, §6, §7

[10] = tested on: isogenic HIV-1 RT mutant virus V106I; test: HeLa cell assay (HIV-LTR β-galactosidase reporter); format: cell-based; details: Human immunodeficiency virus 1, HeLa, read-out: IC50 (nM) Range
Description: as §1, §2, §3, §4, §5, §6, §7

[11] = tested on: isogenic HIV-1 RT mutant virus V106A; test: HeLa cell assay (HIV-LTR β-galactosidase reporter); format: cell-based; details: Human immunodeficiency virus 1, HeLa, read-out: IC50 (nM) Range
Description: as §1, §2, §3, §4, §5, §6, §7

[12] = Virus Type HIV-1, Assay MT4, read-out: IC50 (nM) Range

| SMILES | IC50 [1, 12] [nM] | IC50 [2] [nM] | IC50 [4] [nM] | IC50 [5] [nM] | IC50 [6] [nM] | IC50 [7] [nM] | also measured |
| --- | --- | --- | --- | --- | --- | --- | --- |
| Cc1cn([C@H]2C[C@H](N=[N+]=[N-])[C@@H](CO)O2)c(=O)[nH]c1=O [3′-azido-3′-deoxythymidine, reference compound] |  |  |  |  |  |  | IC50 ([1]; control and standard tested in every MT4 assay, 0.01 to 1 μM, read-out: expected range of IC50 values): 40 to 120 nM |
| O=C(COc1ccc(Cl)cc1C(=O)c1nccs1)Nc1ccccc1 [Compound 1] | 101 to 1000 | 1000 to 3000 |  |  |  |  |  |
| O=C(COc1ccc(Cl)cc1C(=O)c1nccs1)Nc1ccc2[nH]ncc2c1 [Compound 5] | 11 to 100 | 101 to 1000 |  |  |  |  |  |
| Cc1cc(N2CC[S+]([O-])CC2)ccc1NC(=O)COc1ccc(Cl)cc1C(=O)c1nccs1 [Compound 8] | 11 to 100 | 101 to 1000 |  |  |  |  |  |
| O=C(COc1ccc(Cl)cc1C(=O)c1cc2ccccc2o1)Nc1ccccc1 [Compound 9] | 11 to 100 | 101 to 1000 |  |  |  |  |  |
| Cc1cc(S(N)(=O)=O)ccc1NC(=O)COc1ccc(Cl)cc1C(=O)c1cc(Cl)cc(Cl)c1 [Compound 79] | < 10 | < 10 | < 10 | < 10 |  |  | IC50 [3]: 1000 to 3000 nM |
| O=C(COc1ccc(Cl)cc1C(=O)c1ccccc1)Nc1ccc(-n2cncn2)cc1 [Compound 103] | 11 to 100 | 101 to 1000 |  | 11 to 100 |  |  |  |
| Cc1cc(OCCCN2CCOCC2)ccc1NC(=O)COc1ccc(Cl)cc1C(=O)c1cccs1 [Compound 120] | 11 to 100 | 11 to 100 | 101 to 1000 | 11 to 100 | 11 to 100 | 11 to 100 |  |
| Cc1cc(N2CC[S+]([O-])CC2)ccc1NC(=O)COc1ccc(Cl)cc1C(=O)c1cccs1 [Compound 122] | < 10 | 11 to 100 | 1000 to 3000 | 11 to 100 | 11 to 100 | 101 to 1000 |  |
| COc1ccc(NC(=O)COc2ccc(Cl)cc2C(=O)c2cc(F)cc(F)c2)cn1 [Compound 274] |  |  |  |  |  |  | melting point: 185 to 187 °C |
| O=C(COc1ccc(Cl)cc1C(=O)c1cc(F)cc(F)c1)Nc1ccc(Cl)nc1 [Compound 275] |  |  |  |  |  |  | melting point: 198 to 200 °C |
| O=C(c1cc(F)cc(F)c1)c1cc(Cl)ccc1OCC(=O)N1CCc2ccccc21 [Compound 276] |  |  |  |  |  |  | melting point: 158 to 160 °C |
| O=C(COc1ccc(Cl)cc1C(=O)c1cc(F)cc(F)c1)Nc1ccc2c(c1)CS(=O)(=O)C2 [Compound 277] |  |  |  |  |  |  | melting point: 197 to 199 °C |
| CS(=O)(=O)Nc1ccc(NC(=O)COc2ccc(Cl)cc2C(=O)c2ccccc2)cc1 [Compound 338] | < 10 | 11 to 100 | 101 to 1000 | 11 to 100 | < 10 | 11 to 100 |  |
| O=C(COc1ccc(Cl)cc1C(=O)c1ccccc1)Nc1ccc2cn[nH]c2c1 [Compound 387] | < 10 | 11 to 100 | 11 to 100 | < 10 | < 10 | 11 to 100 |  |
| O=C(COc1ccc(Cl)cc1C(=O)c1ccco1)Nc1ccc2cn[nH]c2c1 [Compound 435] | < 10 | 11 to 100 | 101 to 1000 | < 10 | < 10 | 11 to 100 |  |
| Cc1cc(Cl)cc(C(=O)c2cc(Cl)ccc2OCC(=O)Nc2ccc(S(N)(=O)=O)cc2C)c1 [Compound 483] | 11 to 100 | < 10 |  | 101 to 1000 | 11 to 100 | 101 to 1000 | IC50 [8]: 101 to 1000 nM; IC50 [9]: 11 to 100 nM; IC50 [10]: < 10 nM |
| Cc1cc(S(N)(=O)=O)ccc1NC(=O)COc1ccc(Cl)cc1C(=O)c1cc(C#N)cc(C#N)c1 [Compound 601] | < 10 | < 10 |  | < 10 | < 10 | < 10 | IC50 [11]: < 10 nM |
